Key:
Assay type in all cases: in vivo
Kochia (Kochia scoparia) [1] = assay: Test A preemergence; conditions: Bassia scoparia, pre-emergence, 240 h; for pest or weed control at 500 g/ha: 500 g ai/ha, preemergence, 0 to 100 scale where 0 is no effect and 100 is complete control, read-out: Kochia plant response rating; for pest or weed control at 125 g/ha: Preemergence, 125 g ai/ha, 0 to 100 scale (0 no effect, 100 complete control), read-out: Plant response rating, Kochia
Summary of the method: (§1)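 Preemergence soil spray on seeded pots or post-emergence spray on 1–2 leaf plants, in loam–sand blend. Greenhouse ~10 d. Visual rating 0–100 against untreated plants.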

[2] = test system: barnyardgrass (Echinochloa crus-galli); assay: Test A preemergence; conditions: Echinochloa crus-galli, pre-emergence, 240 h; for pest or weed control at 500 g/ha: 500 g ai/ha, preemergence, 0 to 100 scale where 0 is no effect and 100 is complete control, read-out: Barnyardgrass plant response rating; for pest or weed control at 125 g/ha: Preemergence, 125 g ai/ha, 0 to 100 scale (0 no effect, 100 complete control), read-out: Plant response rating, Barnyardgrass
Summary of the method: as §1

[3] = test system: giant foxtail (Setaria faberii); assay: Test A preemergence; conditions: Setaria faberi, pre-emergence, 240 h; for pest or weed control at 500 g/ha: 500 g ai/ha, preemergence, 0 to 100 scale where 0 is no effect and 100 is complete control, read-out: Foxtail, Giant plant response rating; for pest or weed control at 125 g/ha: Preemergence, 125 g ai/ha, 0 to 100 scale (0 no effect, 100 complete control), read-out: Plant response rating, Foxtail, Giant
Summary of the method: as §1

[4] = test system: ragweed (common ragweed, Ambrosia elatior); assay: Test A preemergence; conditions: Ambrosia artemisiifolia, pre-emergence, 240 h; for pest or weed control at 500 g/ha: 500 g ai/ha, preemergence, 0 to 100 scale where 0 is no effect and 100 is complete control, read-out: Ragweed plant response rating; for pest or weed control at 125 g/ha: Preemergence, 125 g ai/ha, 0 to 100 scale (0 no effect, 100 complete control), read-out: Plant response rating, Ragweed
Summary of the method: as §1

[5] = test system: ryegrass, Italian (Italian ryegrass, Lolium multiflorum); assay: Test A preemergence; conditions: Lolium multiflorum, pre-emergence, 240 h, Preemergence, 125 g ai/ha; 0 to 100 scale (0 no effect, 100 complete control); read-out: Plant response rating, Ryegrass, Italian
Summary of the method: as §1

[6] = test system: Galium (catchweed bedstraw, Galium aparine); assay: Test A postemergence; conditions: Galium, post-emergence, 240 h, Postemergence; for pest or weed control at 125 g/ha: 125 g ai/ha, visual rating about 10 d after treatment, read-out: Galium plant response rating (0 to 100 scale); for pest or weed control at 500 g/ha: 500 g ai/ha, visual injury, 0 to 100 scale (0 no effect, 100 complete control), approx. 10 d, read-out: Plant response rating, Galium
Summary of the method: as §1

Kochia (Kochia scoparia) [7] = assay: Test A postemergence; conditions: Bassia scoparia, post-emergence, 240 h, Postemergence; for pest or weed control at 125 g/ha: 125 g ai/ha, visual rating about 10 d after treatment, read-out: Kochia plant response rating (0 to 100 scale); for pest or weed control at 500 g/ha: 500 g ai/ha, visual injury, 0 to 100 scale (0 no effect, 100 complete control), approx. 10 d, read-out: Plant response rating, Kochia
Summary of the method: as §1

[8] = test system: barnyardgrass (Echinochloa crus-galli); assay: Test A postemergence; conditions: Echinochloa crus-galli, post-emergence, 240 h, Postemergence; for pest or weed control at 125 g/ha: 125 g ai/ha, visual rating about 10 d after treatment, read-out: Barnyardgrass plant response rating (0 to 100 scale, 0 no effect, 100 complete control); for pest or weed control at 500 g/ha: 500 g ai/ha, visual injury, 0 to 100 scale (0 no effect, 100 complete control), approx. 10 d, read-out: Plant response rating, Barnyardgrass
Summary of the method: as §1

[9] = test system: blackgrass (Alopecurus myosuroides); assay: Test A postemergence; conditions: Alopecurus myosuroides, post-emergence, 240 h, Postemergence; for pest or weed control at 125 g/ha: 125 g ai/ha, visual rating about 10 d after treatment, read-out: Blackgrass plant response rating (0 to 100 scale); for pest or weed control at 500 g/ha: 500 g ai/ha, visual injury, 0 to 100 scale (0 no effect, 100 complete control), approx. 10 d, read-out: Plant response rating, Blackgrass
Summary of the method: as §1

corn (Zea mays) = assay: Test A postemergence; conditions: Zea mays, post-emergence, 240 h, Postemergence; for plant injury at 125 g/ha: 125 g ai/ha, visual rating about 10 d after treatment, read-out: Corn plant response rating (0 to 100 scale); for Corn plant response rating (crop injury, 0 = no effect, 100 = complete kill) at 500 g/ha: 500 g ai/ha, visual injury, 0 to 100 scale (0 no effect, 100 complete control), approx. 10 d
Summary of the method: as §1

[10] = test system: giant foxtail (Setaria faberii); assay: Test A postemergence; conditions: Setaria faberi, post-emergence, 240 h, Postemergence; for pest or weed control at 125 g/ha: 125 g ai/ha, visual rating about 10 d after treatment, read-out: Foxtail, Giant plant response rating (0 to 100 scale); for pest or weed control at 500 g/ha: 500 g ai/ha, visual injury, 0 to 100 scale (0 no effect, 100 complete control), approx. 10 d, read-out: Plant response rating, Foxtail, Giant
Summary of the method: as §1

[11] = test system: pigweed (Amaranthus retroflexus); assay: Test A postemergence; conditions: Amaranthus retroflexus, post-emergence, 240 h, Postemergence; for pest or weed control at 125 g/ha: 125 g ai/ha, visual rating about 10 d after treatment, read-out: Pigweed plant response rating (0 to 100 scale); for pest or weed control at 500 g/ha: 500 g ai/ha, visual injury, 0 to 100 scale (0 no effect, 100 complete control), approx. 10 d, read-out: Plant response rating, Pigweed
Summary of the method: as §1

[12] = test system: ragweed (common ragweed, Ambrosia elatior); assay: Test A postemergence; conditions: Ambrosia artemisiifolia, post-emergence, 240 h, Postemergence; for pest or weed control at 125 g/ha: 125 g ai/ha, visual rating about 10 d after treatment, read-out: Ragweed plant response rating (0 to 100 scale); for pest or weed control at 500 g/ha: 500 g ai/ha, visual injury, 0 to 100 scale (0 no effect, 100 complete control), approx. 10 d, read-out: Plant response rating, Ragweed
Summary of the method: as §1

[13] = test system: ryegrass, Italian (Italian ryegrass, Lolium multiflorum); assay: Test A postemergence; conditions: Lolium multiflorum, post-emergence, 240 h, Postemergence; for pest or weed control at 125 g/ha: 125 g ai/ha, visual rating about 10 d after treatment, read-out: Ryegrass, Italian plant response rating (0 to 100 scale); for pest or weed control at 500 g/ha: 500 g ai/ha, visual injury, 0 to 100 scale (0 no effect, 100 complete control), approx. 10 d, read-out: Plant response rating, Ryegrass, Italian
Summary of the method: as §1

[14] = test system: wheat (Triticum aestivum); assay: Test A postemergence; conditions: Triticum aestivum, post-emergence, 240 h, Postemergence; for plant injury at 125 g/ha: 125 g ai/ha, visual rating about 10 d after treatment, read-out: Wheat plant response rating (0 to 100 scale); for plant injury at 500 g/ha: 500 g ai/ha, visual injury, 0 to 100 scale (0 no effect, 100 complete control), approx. 10 d, read-out: Plant response rating, Wheat
Summary of the method: as §1

CN1C[C@H](c2cccc(C(C)(F)F)c2)[C@@H](C(=O)Nc2cccc(F)c2F)C1=O [Compound 1316]
pest or weed control at 500 g/ha (Kochia (Kochia scoparia) [1]): 80% | pest or weed control at 125 g/ha (Kochia (Kochia scoparia) [1]): 80% | pest or weed control at 500 g/ha [2]: 90% | pest or weed control at 125 g/ha [2]: 90% | pest or weed control at 500 g/ha [3]: 90% | pest or weed control at 125 g/ha [3]: 90% | pest or weed control at 500 g/ha [4]: 70% | pest or weed control at 125 g/ha [4]: 0% | pest or weed control at 125 g/ha [5]: 70% | pest or weed control at 125 g/ha [6]: 60% | pest or weed control at 500 g/ha [6]: 60% | pest or weed control at 125 g/ha (Kochia (Kochia scoparia) [7]): 30% | pest or weed control at 500 g/ha (Kochia (Kochia scoparia) [7]): 40% | pest or weed control at 125 g/ha [8]: 90% | pest or weed control at 500 g/ha [8]: 90% | pest or weed control at 125 g/ha [9]: 70% | pest or weed control at 500 g/ha [9]: 80% | plant injury at 125 g/ha (corn (Zea mays)): 80% | Corn plant response rating (crop injury, 0 = no effect, 100 = complete kill) at 500 g/ha (corn (Zea mays)): 80% | pest or weed control at 125 g/ha [10]: 90% | pest or weed control at 500 g/ha [10]: 90% | pest or weed control at 125 g/ha [11]: 50% | pest or weed control at 500 g/ha [11]: 60% | pest or weed control at 125 g/ha [12]: 30% | pest or weed control at 500 g/ha [12]: 70% | pest or weed control at 125 g/ha [13]: 50% | pest or weed control at 500 g/ha [13]: 80% | plant injury at 125 g/ha [14]: 60% | plant injury at 500 g/ha [14]: 80%

CN1C[C@H](c2cccc(C(C)(F)F)c2)[C@@H](C(=O)Nc2ccccc2F)C1=O [Compound 1317]
pest or weed control at 500 g/ha (Kochia (Kochia scoparia) [1]): 80% | pest or weed control at 125 g/ha (Kochia (Kochia scoparia) [1]): 60% | pest or weed control at 500 g/ha [2]: 90% | pest or weed control at 125 g/ha [2]: 90% | pest or weed control at 500 g/ha [3]: 100% | pest or weed control at 125 g/ha [3]: 90% | pest or weed control at 500 g/ha [4]: 40% | pest or weed control at 125 g/ha [4]: 0% | pest or weed control at 125 g/ha [5]: 20% | pest or weed control at 125 g/ha [6]: 60% | pest or weed control at 500 g/ha [6]: 60% | pest or weed control at 125 g/ha (Kochia (Kochia scoparia) [7]): 20% | pest or weed control at 500 g/ha (Kochia (Kochia scoparia) [7]): 30% | pest or weed control at 125 g/ha [8]: 90% | pest or weed control at 500 g/ha [8]: 90% | pest or weed control at 125 g/ha [9]: 80% | pest or weed control at 500 g/ha [9]: 80% | plant injury at 125 g/ha (corn (Zea mays)): 80% | Corn plant response rating (crop injury, 0 = no effect, 100 = complete kill) at 500 g/ha (corn (Zea mays)): 80% | pest or weed control at 125 g/ha [10]: 90% | pest or weed control at 500 g/ha [10]: 90% | pest or weed control at 125 g/ha [11]: 30% | pest or weed control at 500 g/ha [11]: 20% | pest or weed control at 125 g/ha [12]: 0% | pest or weed control at 500 g/ha [12]: 20% | pest or weed control at 125 g/ha [13]: 40% | pest or weed control at 500 g/ha [13]: 80% | plant injury at 125 g/ha [14]: 60% | plant injury at 500 g/ha [14]: 60%
